In patent US20130158072A1, “KAPPA OPIOID RECEPTOR BINDING LIGANDS” (Research Triangle Institute, priority 2010, published 2013):

How the values were obtained:
[1] = target: T1, cloned human μ-opioid receptor (Homo sapiens, UniProt P35372); test: Intrinsic activity in the [35S]GTPγS binding assay; assay type: biochemical; details: at 10 μM
T1 construct: expressed in transfected cells; host or cells: CHO cells
Experimental: (§1) Test compound assay concentrations ranged from 1-5000 nM, depending on their activity. The Ke values were calculated using the formula: Ke=[L]/DR−1, where [L] is the concentration of test compound and DR is the ratio of agonist EC50 value in the presence or absence of test compound, respectively.

mice = details: oral; cited from earlier work
rats = details: oral; cited from earlier work
[2] = target: T2, cloned human κ-opioid receptor (Homo sapiens, UniProt P41145); test: Intrinsic activity in the [35S]GTPγS binding assay; assay type: biochemical; design: expressed in transfected cells; host or cells: CHO cells; details: at 10 μM
Experimental: as §1

[3] = target: T2, cloned human κ-opioid receptor; design: expressed in transfected cells; host or cells: CHO cells; details: previously reported; cited from earlier work
[4] = target: T2, cloned human κ-opioid receptor; test: Inhibition of U69,593-stimulated [35S]GTPγS binding; details: antagonism of U69,593-stimulated [35S]GTPγS binding, CHO cells; means ± SE, at least three experiments
Experimental: as §1

κ-opioid receptor = details: in vivo, compared with other κ-opioid antagonists; cited from earlier work
[5] = target: T3, cloned human δ-opioid receptor (Homo sapiens, UniProt P41143); test: Intrinsic activity in the [35S]GTPγS binding assay; assay type: biochemical; details: at 10 μM
T3 construct: expressed in transfected cells; host or cells: CHO cells
Experimental: as §1

rodents = details: forced-swim, elevated plus maze, fear-potentiated startle; cited from earlier work

T2 sequence (P41145 whole entry): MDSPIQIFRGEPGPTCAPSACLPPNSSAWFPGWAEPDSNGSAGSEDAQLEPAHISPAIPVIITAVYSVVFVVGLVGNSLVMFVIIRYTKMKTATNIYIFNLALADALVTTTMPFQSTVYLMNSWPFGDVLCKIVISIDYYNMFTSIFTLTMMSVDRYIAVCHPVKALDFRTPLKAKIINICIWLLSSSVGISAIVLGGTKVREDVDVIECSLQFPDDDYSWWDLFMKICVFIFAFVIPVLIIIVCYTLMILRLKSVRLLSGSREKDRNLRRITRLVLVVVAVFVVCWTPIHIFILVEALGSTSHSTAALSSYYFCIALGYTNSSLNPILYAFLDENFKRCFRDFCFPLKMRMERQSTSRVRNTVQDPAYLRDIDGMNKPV
T1 sequence (P35372 whole entry): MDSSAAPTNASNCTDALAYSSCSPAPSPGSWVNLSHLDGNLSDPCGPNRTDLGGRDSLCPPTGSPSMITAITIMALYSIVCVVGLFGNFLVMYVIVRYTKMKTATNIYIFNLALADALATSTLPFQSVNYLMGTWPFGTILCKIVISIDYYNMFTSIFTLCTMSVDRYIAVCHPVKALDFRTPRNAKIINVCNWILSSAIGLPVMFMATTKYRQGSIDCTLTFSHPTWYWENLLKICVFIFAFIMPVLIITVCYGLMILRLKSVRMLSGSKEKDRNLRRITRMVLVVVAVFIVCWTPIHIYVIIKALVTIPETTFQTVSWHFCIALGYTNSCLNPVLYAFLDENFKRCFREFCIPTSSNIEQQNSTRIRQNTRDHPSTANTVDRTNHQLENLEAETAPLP
T3 sequence (P41143 whole entry): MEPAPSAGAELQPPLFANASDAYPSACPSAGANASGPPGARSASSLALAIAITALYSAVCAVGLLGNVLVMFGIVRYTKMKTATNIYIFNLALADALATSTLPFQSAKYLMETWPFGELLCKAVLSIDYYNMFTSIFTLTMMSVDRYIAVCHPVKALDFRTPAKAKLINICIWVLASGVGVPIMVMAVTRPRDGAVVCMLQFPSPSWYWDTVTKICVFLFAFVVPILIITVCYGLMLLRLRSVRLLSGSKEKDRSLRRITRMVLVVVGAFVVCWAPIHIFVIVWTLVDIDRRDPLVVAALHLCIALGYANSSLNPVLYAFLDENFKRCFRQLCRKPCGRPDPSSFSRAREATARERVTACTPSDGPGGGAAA

CC(C)[C@@H](CN1CC[C@@](C)(c2cccc(O)c2)[C@@H](C)C1)NC(=O)[C@H]1Cc2ccc(O)cc2CN1 [Compound 3, (3R)-7-hydroxy-N-((1S)-1-{[(3R,4R)-4-(3-hydroxyphenyl)-3,4-dimethyl-1-piperidinyl]methyl}-2-methylpropyl)-1,2,3,4-tetrahydro-3-isoquinolinecarboxamide]
intrinsic activity at the μ opioid receptor [1]: none of the compounds displayed measurable intrinsic activity | antagonism of the antinociceptive activity of enadoline (mice): oral activity | prevention of stress-induced cocaine reinstatement of self-administration (rats): oral activity | intrinsic activity at the κ opioid receptor [2]: none of the compounds displayed measurable intrinsic activity | Ke value at the κ-opioid receptor [3]: 0.02 nM | κ, U69,593 Ke [4]: 0.02 nM | potency at blocking κ-opioid agonist-induced activity (κ-opioid receptor): more potent | intrinsic activity at the δ opioid receptor [5]: none of the compounds displayed measurable intrinsic activity | fear and stress-induced responses (rodents): dose-dependently reduce fear and stress-induced responses
